From ChEMBL document CHEMBL1155056, “4-(Anilino)pyrrole-2-carboxamides: Novel non-steroidal/non-anilide type androgen antagonists effective upon human prostate tumor LNCaP cells with mutated nuclear androgen receptor” (Bioorg Med Chem, 2008)
Calls of active or inactive are those of the source. No cut-off for these calls is given here.

Tests used:
Androgen receptor [1] = target: Androgen receptor (Homo sapiens, UniProt P10275, T878A); experiment: Displacement of [3H]testosterone from human recombinant androgen receptor T877A mutant expressed in LNCaP cells
Androgen receptor [2] = target: T1, Androgen receptor (Homo sapiens, UniProt P10275)
T1 sequence (P10275 whole entry): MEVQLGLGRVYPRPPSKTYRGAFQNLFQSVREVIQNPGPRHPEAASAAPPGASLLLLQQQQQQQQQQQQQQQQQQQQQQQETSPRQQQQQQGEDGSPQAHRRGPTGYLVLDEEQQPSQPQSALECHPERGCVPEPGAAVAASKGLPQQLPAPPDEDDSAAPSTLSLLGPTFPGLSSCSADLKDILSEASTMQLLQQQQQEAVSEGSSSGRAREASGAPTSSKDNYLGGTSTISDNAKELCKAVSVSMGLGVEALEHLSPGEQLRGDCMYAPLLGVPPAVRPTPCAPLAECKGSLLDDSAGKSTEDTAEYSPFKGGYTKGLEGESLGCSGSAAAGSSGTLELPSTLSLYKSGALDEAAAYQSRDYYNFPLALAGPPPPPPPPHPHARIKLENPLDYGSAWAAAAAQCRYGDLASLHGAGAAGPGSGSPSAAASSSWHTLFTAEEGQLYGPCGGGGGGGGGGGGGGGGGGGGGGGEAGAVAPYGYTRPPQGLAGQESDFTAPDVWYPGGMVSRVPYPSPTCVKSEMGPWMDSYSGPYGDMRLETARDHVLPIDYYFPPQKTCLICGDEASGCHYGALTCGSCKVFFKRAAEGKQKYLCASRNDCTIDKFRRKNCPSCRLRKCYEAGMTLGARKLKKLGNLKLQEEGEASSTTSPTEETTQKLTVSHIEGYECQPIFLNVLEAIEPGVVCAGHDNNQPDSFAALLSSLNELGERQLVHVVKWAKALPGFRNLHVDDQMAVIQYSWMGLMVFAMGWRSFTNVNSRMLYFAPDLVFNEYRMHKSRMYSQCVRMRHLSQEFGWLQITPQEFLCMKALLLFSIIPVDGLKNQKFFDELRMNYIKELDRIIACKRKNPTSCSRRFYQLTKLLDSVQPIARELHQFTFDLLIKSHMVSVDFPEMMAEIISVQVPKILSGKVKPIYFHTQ

[3] = target: T2, Androgen receptor (Homo sapiens) (UniProt P10275); details: 30 uM
T2 sequence (whole entry): T1 sequence (P10275 whole entry)
Description: Displacement of [3H]testosterone from wild type human androgen receptor at 30 uM

[4] = target: T2, Androgen receptor (Homo sapiens); experiment: Displacement of [3H]testosterone from wild type human androgen receptor at 3 uM
[5] = tested on: Androgen receptor (Homo sapiens), P10275 [T878A]; experiment: Antagonist activity at human recombinant androgen receptor T877A mutant assessed as inhibition of prostate specific antigen production in human LNCaP cells by ELISA; format: functional, cell-based
LNCaP = experiment: Antiproliferative activity against human LNCaP cells; format: functional, cell-based
[6] = target: T2, Androgen receptor (Homo sapiens); experiment: Antagonist activity at wild type human recombinant androgen receptor assessed as inhibition of testosterone-induced growth of mouse androgen dependent SC3 cells at 1 uM by WST-1 method; format: functional, cell-based; details: SC-3

Androgen receptor (Homo sapiens, UniProt P10275, T878A), sequence (P10275 whole entry T878A): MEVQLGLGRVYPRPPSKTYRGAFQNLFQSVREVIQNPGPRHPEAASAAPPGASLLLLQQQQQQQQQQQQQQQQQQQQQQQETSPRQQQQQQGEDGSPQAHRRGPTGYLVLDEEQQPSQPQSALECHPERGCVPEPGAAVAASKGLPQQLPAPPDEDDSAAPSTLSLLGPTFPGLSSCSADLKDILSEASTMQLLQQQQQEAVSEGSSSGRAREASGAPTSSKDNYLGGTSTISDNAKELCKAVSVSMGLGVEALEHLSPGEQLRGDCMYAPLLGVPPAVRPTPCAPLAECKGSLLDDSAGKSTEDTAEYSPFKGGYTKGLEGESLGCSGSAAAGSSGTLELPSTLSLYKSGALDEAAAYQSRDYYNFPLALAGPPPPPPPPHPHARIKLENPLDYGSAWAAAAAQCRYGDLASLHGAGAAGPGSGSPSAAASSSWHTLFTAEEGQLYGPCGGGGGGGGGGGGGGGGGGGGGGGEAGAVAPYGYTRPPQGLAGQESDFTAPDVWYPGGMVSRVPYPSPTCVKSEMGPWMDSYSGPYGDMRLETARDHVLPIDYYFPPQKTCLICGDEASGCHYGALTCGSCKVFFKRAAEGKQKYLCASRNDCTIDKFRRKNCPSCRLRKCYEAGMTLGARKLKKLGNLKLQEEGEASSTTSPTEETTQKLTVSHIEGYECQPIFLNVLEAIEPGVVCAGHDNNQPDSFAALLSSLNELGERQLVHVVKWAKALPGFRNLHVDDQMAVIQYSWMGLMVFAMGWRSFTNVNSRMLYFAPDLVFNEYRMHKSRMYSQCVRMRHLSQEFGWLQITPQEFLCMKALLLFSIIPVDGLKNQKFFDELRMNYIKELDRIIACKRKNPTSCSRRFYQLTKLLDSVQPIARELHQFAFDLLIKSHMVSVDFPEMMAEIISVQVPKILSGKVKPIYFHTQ
Androgen receptor (Homo sapiens), P10275 [T878A], sequence (P10275 whole entry T878A): as above

| Structure (SMILES) | Ki (Androgen receptor [1]) [nM] | Ki (Androgen receptor [2]) [nM] | also measured |
| --- | --- | --- | --- |
| CCN(CC)C(=O)c1cc(N(Cc2ccccc2)c2ccc([N+](=O)[O-])cc2)cn1C | 3 | 100 |  |
| Cn1cc(N(Cc2ccccc2)c2ccc([N+](=O)[O-])c(C(F)(F)F)c2)cc1C(=O)N1CCCC1 | 49 |  | inhibition [3]: 52% |
| Cn1cc(N(Cc2ccc(F)cc2)c2ccc([N+](=O)[O-])cc2)cc1C(=O)N1CCCC1 | 140 | 800 |  |
| Cc1ccc(CN(c2ccc([N+](=O)[O-])cc2)c2cc(C(=O)N3CCCC3)n(C)c2)cc1 | 130 | 810 |  |
| Cn1cc(N(Cc2ccc(O)cc2)c2ccc([N+](=O)[O-])cc2)cc1C(=O)N1CCCC1 | 330 | 730 |  |
| Cc1cc(C)cc(Nc2cc(C(=O)N3CCCC3)n(C)c2)c1 |  | 3100 |  |
| O=C(c1cccc(N(Cc2ccccc2)c2ccc([N+](=O)[O-])cc2)c1)N1CCCC1 |  | 370 |  |
| Cc1cc(C)cc(N(Cc2ccc(CO)cc2)c2cc(C(=O)N3CCCC3)n(C)c2)c1 |  | 2200 |  |
| Cn1cc(N(Cc2ccccc2)c2ccc(C#N)cc2)cc1C(=O)N1CCCC1 | 6 | 130 |  |
| Cc1cc(C)cc(N(Cc2ccccc2)c2cc(C(=O)N3CCCC3)n(C)c2)c1 |  | 350 | inhibition [4]: 20% |
| O=C(c1ccc(N(Cc2ccccc2)c2ccc([N+](=O)[O-])cc2)cc1)N1CCCC1 |  | 340 |  |
| CCOC(=O)c1cc(N(Cc2ccccc2)c2ccc([N+](=O)[O-])cc2)cn1C | 7 | 180 |  |
| Cc1cc(C)cc(N(Cc2ccc(O)cc2)c2cc(C(=O)N3CCCC3)n(C)c2)c1 |  | 690 |  |
| Cn1cc(N(Cc2ccccc2)c2ccc(C(F)(F)F)cc2)cc1C(=O)N1CCCC1 | 36 | 270 |  |
| CC(=O)c1ccc(N(Cc2ccccc2)c2cc(C(=O)N3CCCC3)n(C)c2)cc1 | 130 | 140 | Activity [5]: inactive |
| Cn1cc(N(Cc2ccccc2)c2ccc([N+](=O)[O-])cc2)cc1C(=O)N1CCCCC1 | 27 | 110 |  |
| Cn1cc(N(Cc2ccccc2)c2ccc([N+](=O)[O-])cc2)cc1C(=O)N1CCCC1 | 5 | 110 | Activity (LNCaP): Active |
| C[C@](O)(CS(=O)(=O)c1ccc(F)cc1)C(=O)Nc1ccc(C#N)c(C(F)(F)F)c1 |  |  | Activity (LNCaP): Active |

| Structure (SMILES) | Ki (Androgen receptor [1]) [nM] | Ki (Androgen receptor [2]) [nM] | also measured |
| --- | --- | --- | --- |
| COC(=O)c1ccc(N(Cc2ccccc2)c2cc(C(=O)N3CCCC3)n(C)c2)cc1 | 180 | 180 | Activity [5]: inactive |
| Cn1cc(Nc2ccc([N+](=O)[O-])cc2)cc1C(=O)N1CCCC1 |  | 4900 |  |
| Cn1cc(N(Cc2ccc(CO)cc2)c2ccc([N+](=O)[O-])cc2)cc1C(=O)N1CCCC1 | 1400 | 1800 |  |
| CCN(c1ccc([N+](=O)[O-])cc1)c1cc(C(=O)N2CCCC2)n(C)c1 |  | 2000 |  |
| Cn1cc(N(Cc2ccccc2)c2ccc([N+](=O)[O-])cc2)cc1C(=O)O | 3 | 75 |  |
| Cc1cc(C)cc(N(C)c2cc(C(=O)N3CCCC3)n(C)c2)c1 |  | 6100 |  |
| Cc1cc(C)cc(N(CC2CCCCC2)c2cc(C(=O)N3CCCC3)n(C)c2)c1 |  | 490 |  |
| CN(c1ccc([N+](=O)[O-])cc1)c1cc(C(=O)N2CCCC2)n(C)c1 |  | 3600 |  |
| Cn1cc(N(Cc2ccccc2)c2ccc([N+](=O)[O-])cc2)cc1C(=O)N1CCc2ccccc21 | 9 |  | inhibition [4]: 25% |
| Cn1cc(N(CC2CCCCC2)c2ccc([N+](=O)[O-])cc2)cc1C(=O)N1CCCC1 |  | 520 |  |
| Cn1cc(N(Cc2ccccc2)c2ccccc2[N+](=O)[O-])cc1C(=O)N1CCCC1 |  | 1300 | inhibition [6]: 27% |
| Cn1cc(N(Cc2ccccc2)c2ccc([N+](=O)[O-])cc2)cc1CO |  | 170 |  |
| Cc1cc(C)cc(N(c2cc(C(=O)N3CCCC3)n(C)c2)C(C)C)c1 |  | 2700 |  |
| CC(C)N(c1ccc([N+](=O)[O-])cc1)c1cc(C(=O)N2CCCC2)n(C)c1 |  | 3400 |  |
| Cn1cc(N(Cc2ccccc2)c2ccc([N+](=O)[O-])cc2)cc1C(N)=O |  | 220 |  |
| CCN(c1cc(C)cc(C)c1)c1cc(C(=O)N2CCCC2)n(C)c1 |  | 2700 |  |
| CC(C)(O)C(=O)Nc1ccc([N+](=O)[O-])c(C(F)(F)F)c1 |  |  | Activity (LNCaP): inactive |
